The text below walks through data of patent publication US8193191B2, “Urotensin II receptor antagonists” (Janssen Pharmaceutica N.V., priority 2006, dated 2012).

Test [1] concerns the target T1, rat GPR14 (U-II receptor) (Rattus norvegicus, UniProt P49684).
T1 construct: expressed in transfected cells
T1 sequence (P49684 1-386): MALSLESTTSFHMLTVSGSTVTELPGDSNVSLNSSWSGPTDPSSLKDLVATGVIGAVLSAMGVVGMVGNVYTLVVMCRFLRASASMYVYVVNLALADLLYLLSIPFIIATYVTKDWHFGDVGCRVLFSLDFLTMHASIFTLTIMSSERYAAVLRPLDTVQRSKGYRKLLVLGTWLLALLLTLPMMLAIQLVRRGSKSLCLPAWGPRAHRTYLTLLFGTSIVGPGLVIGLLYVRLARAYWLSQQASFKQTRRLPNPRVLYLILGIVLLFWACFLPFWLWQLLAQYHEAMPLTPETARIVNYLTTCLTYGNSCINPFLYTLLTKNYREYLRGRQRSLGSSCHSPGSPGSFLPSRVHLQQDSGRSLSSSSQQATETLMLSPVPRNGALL
In words: Rat UII Calcium Mobilization FLIPR Assay. Type of test: cell-based. The following applies: average value for the compound tested; read-out: Rat UII FLIPR Average IC50. The essentials: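 Fluorescent calcium signals were recorded at room temperature (23° C) by FLIPR. Stable rat U-II receptor CHO lines had been dye-loaded for 1 h at 37° C in pH 7.4 HBSS containing 20 mM HEPES, 0.1% BSA and 2.5 mM probenecid.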
For orientation: Calcium flux is commonly read through the fluorescence of an indicator in the cells.

Test [2] addresses T2, endogenous human UII receptor (Homo sapiens, UniProt Q9UKP6).
T2 sequence (Q9UKP6 1-389): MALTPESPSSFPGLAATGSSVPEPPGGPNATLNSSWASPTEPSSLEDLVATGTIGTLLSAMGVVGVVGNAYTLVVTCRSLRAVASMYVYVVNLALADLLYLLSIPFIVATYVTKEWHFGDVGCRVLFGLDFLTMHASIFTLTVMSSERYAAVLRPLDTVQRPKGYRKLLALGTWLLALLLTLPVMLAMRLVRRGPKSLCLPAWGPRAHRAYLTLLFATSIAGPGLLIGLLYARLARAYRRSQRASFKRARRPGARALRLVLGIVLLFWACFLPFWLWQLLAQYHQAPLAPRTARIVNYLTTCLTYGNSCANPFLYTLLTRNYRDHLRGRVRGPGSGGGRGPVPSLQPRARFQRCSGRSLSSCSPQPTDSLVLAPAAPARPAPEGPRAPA
In words: Human Radioligand Binding Assay ((^125I)-U-II binding to human skeletal muscle myoblasts).

In test [3] the target is T3, Human UII receptor, 6D9 human rhabdomyosarcoma cells (Homo sapiens, UniProt Q9UKP6).
T3 construct: 6D9: isolated by dilution subcloning of RMS13 cells, ATCC® Number: CRL-2061; host or cells: 6D9 human rhabdomyosarcoma cells (subclone of RMS13)
T3 sequence (Q9UKP6 1-389): T2 sequence (Q9UKP6 1-389)
Description: Human UII Calcium Mobilization Assay. In kind it is cell-based. The following applies: average value, FLIPR TETRA, read-out: Human UII Ca^+ Mobilization Average IC50. The essentials:
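FLIPR calcium responses were recorded for 4 minutes after room-temperature addition of test antagonist and U-II, in dye-loaded human 6D9 cells (37° C, 45 min; HBSS/HEPES with probenecid 1.25 mM). Compounds serially diluted in HBSS/HEPES, up to 0.1% DMSO; curves gave IC50 and EC50.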

[4] abbreviates: read-out: Human UII Average Binding Ki, average value, (^125I)-U-II binding to human skeletal muscle myoblasts (HSMM), 25° C., 3 h.

As usually defined, the IC50 is the point on the concentration scale where inhibition reaches its midpoint. The Ki is the equilibrium dissociation constant of an inhibitor or competing ligand from its target.

Structures are written as SMILES. Read-outs that look alike come from different tables or passages of the source.

On to `COc1ccc([C@@H](CCCNC2=CCCN2)N2C(=O)c3cccc(N4CCN([C@H](C)c5ccccc5)CC4)c3C2=O)cc1OC` [Cpd 165, (R)-2-[4-(4,5-dihydro-1H-pyrrol-2-ylamino)-1-(3,4-dimethoxy-phenyl)-butyl]-4-[4-(1R)-(1-phenyl-ethyl)-piperazin-1-yl]-isoindole-1,3-dione], for which the half-maximal inhibitory concentration (IC50) came to 18 nM in test [1] and 1100 nM in test [3]. The same compound returned a Ki in test [2] of 350 nM.
Taken in the same sequence, the figures for `COc1ccc([C@@H](CCCNC(C)=N)N2C(=O)c3cccc(N4CCN([C@H](C)c5ccccc5)CC4)c3C2=O)cc1OC` [Cpd 166, (R)-N-(4-(3,4-dimethoxy-phenyl)-4-{1,3-dioxo-4-[4-(1R)-(1-phenyl-ethyl)-piperazin-1-yl]-1,3-dihydro-isoindol-2-yl}-butyl)-acetamidine] were 26 nM, 2600 nM and 510 nM.
With `COc1ccc([C@@H](CCCNS(=O)(=O)c2cccs2)N2C(=O)c3cccc(N4CCNCC4)c3C2=O)cc1OC` [Cpd 167, (R)-thiophene-2-sulfonic acid [4-(3,4-dimethoxy-phenyl)-4-(1,3-dioxo-4-piperazin-1-yl-1,3-dihydro-isoindol-2-yl)-butyl]-amide], the IC50 was found to be 40 nM in test [1] and 500 nM in test [3]. Besides, the inhibition constant (Ki) in test [2] (setting [4]) was 150 nM.
For `CCN1CCN(c2cccc3c2C(=O)N([C@H](CCCNS(=O)(=O)c2cccs2)c2ccc(OC)c(OC)c2)C3=O)CC1` [Cpd 168, (R)-thiophene-2-sulfonic acid {4-(3,4-dimethoxy-phenyl)-4-[4-(4-ethyl-piperazin-1-yl)-1,3-dioxo-1,3-dihydro-isoindol-2-yl]-butyl}-amide], the IC50 worked out at 4.8 nM in test [1] and 150 nM in test [3]. Besides, the Ki in test [2] (setting [4]) turned out to be 35 nM.
In the case of `COc1ccc([C@@H](CCCNS(=O)(=O)c2cccs2)N2C(=O)c3cccc(N4CCN(C)CC4)c3C2=O)cc1OC` [Cpd 169, (R)-thiophene-2-sulfonic acid {4-(3,4-dimethoxy-phenyl)-4-[4-(4-methyl-piperazin-1-yl)-1,3-dioxo-1,3-dihydro-isoindol-2-yl]-butyl}-amide], the 50% inhibitory concentration (IC50) in test [1] was found to be 16 nM; in test [3], 220 nM. The Ki in test [2] (setting [4]) worked out at 59 nM.
For the compound `COc1ccc([C@@H](CCCNS(=O)(=O)c2cccs2)N2C(=O)c3cccc(N4CCN(Cc5ccoc5)CC4)c3C2=O)cc1OC` [Cpd 170, (R)-thiophene-2-sulfonic acid {4-(3,4-dimethoxy-phenyl)-4-[4-(4-furan-3-ylmethyl-piperazin-1-yl)-1,3-dioxo-1,3-dihydro-isoindol-2-yl]-butyl}-amide], the results for the IC50 in test [1] and in test [3] were 8.4 nM and 410 nM, respectively. The compound also had an inhibition constant Ki in test [2] of 31 nM.
Taken in the same sequence, the figures for `COc1ccc([C@@H](CCCNS(=O)(=O)c2cccs2)N2C(=O)c3cccc(N4CCN(Cc5cccnc5)CC4)c3C2=O)cc1OC` [Cpd 171, (R)-thiophene-2-sulfonic acid {4-(3,4-dimethoxy-phenyl)-4-[1,3-dioxo-4-(4-pyridin-3-ylmethyl-piperazin-1-yl)-1,3-dihydro-isoindol-2-yl]-butyl}-amide] were 11 nM, 1000 nM and 370 nM.
Take `COc1ccc([C@@H](CCCNS(=O)(=O)c2cccs2)N2C(=O)c3cccc(N4CCN(Cc5ccsc5)CC4)c3C2=O)cc1OC` [Cpd 172, (R)-thiophene-2-sulfonic acid {4-(3,4-dimethoxy-phenyl)-4-[1,3-dioxo-4-(4-thiophen-3-ylmethyl-piperazin-1-yl)-1,3-dihydro-isoindol-2-yl]-butyl}-amide]: the figures for the half-maximal inhibitory concentration (IC50) in test [1] and in test [3] were 11 nM and 220 nM, respectively. The compound also came in with a Ki in test [2] of 26 nM.
For the compound `COc1ccc([C@@H](CCCNC(=O)C2CCOC2)N2C(=O)c3cccc(N4CCN([C@H](C)c5ccccc5)CC4)c3C2=O)cc1OC` (stereo partly drawn) [Cpd 173, (R)-tetrahydro-furan-3-carboxylic acid (4-(3,4-dimethoxy-phenyl)-4-{1,3-dioxo-4-[4-(1R)-(1-phenyl-ethyl)-piperazin-1-yl]-1,3-dihydro-isoindol-2-yl}-butyl)-amide], the 50% inhibitory concentration (IC50) in test [1] was 11 nM; in test [3] it was 800 nM. In test [2], the inhibition constant (Ki) amounted to 66 nM.
Consider `COc1ccc([C@@H](CCCNC(=O)C(C)C)N2C(=O)c3cccc(N4CCN([C@H](C)c5ccccc5)CC4)c3C2=O)cc1OC` [Cpd 174, (R)-N-(4-(3,4-dimethoxy-phenyl)-4-{1,3-dioxo-4-[4-(1R)-(1-phenyl-ethyl)-piperazin-1-yl]-1,3-dihydro-isoindol-2-yl}-butyl)-isobutyramide], for which the concentration for half-maximal inhibition (IC50) turned out to be 11 nM in test [1] and 620 nM in test [3]. The compound also returned a Ki in test [2] of 19 nM.
For the compound `COCC(=O)NCCC[C@H](c1ccc(OC)c(OC)c1)N1C(=O)c2cccc(N3CCN([C@H](C)c4ccccc4)CC3)c2C1=O` [Cpd 175, (R)-N-(4-(3,4-dimethoxy-phenyl)-4-{1,3-dioxo-4-[4-(1R)-(1-phenyl-ethyl)-piperazin-1-yl]-1,3-dihydro-isoindol-2-yl}-butyl)-2-methoxy-acetamide], the IC50 in test [1] came out at 6.1 nM; in test [3] it was 410 nM. The Ki in test [2] worked out at 26 nM.
For `CCCC(=O)NCCC[C@H](c1ccc(OC)c(OC)c1)N1C(=O)c2cccc(N3CCN([C@H](C)c4ccccc4)CC3)c2C1=O` [Cpd 176, (R)-N-(4-(3,4-dimethoxy-phenyl)-4-{1,3-dioxo-4-[4-(1R)-(1-phenyl-ethyl)-piperazin-1-yl]-1,3-dihydro-isoindol-2-yl}-butyl)-butyramide], the IC50 in test [1] amounted to 13 nM; in test [3], 850 nM. In addition, the Ki in test [2] came to 24 nM.
For `COCCC(=O)NCCC[C@H](c1ccc(OC)c(OC)c1)N1C(=O)c2cccc(N3CCN([C@H](C)c4ccccc4)CC3)c2C1=O` [Cpd 177, (R)-N-(4-(3,4-dimethoxy-phenyl)-4-{1,3-dioxo-4-[4-(1R)-(1-phenyl-ethyl)-piperazin-1-yl]-1,3-dihydro-isoindol-2-yl}-butyl)-3-methoxy-propionamide], the figures for the IC50 in test [1] and in test [3] were 7.1 nM and 1100 nM, respectively. In addition, the Ki in test [2] is 93 nM.
Taken in the same sequence, the figures for `COc1ccc([C@@H](CCCNC(=O)C2CCC2)N2C(=O)c3cccc(N4CCN([C@H](C)c5ccccc5)CC4)c3C2=O)cc1OC` [Cpd 178, (R)-cyclobutanecarboxylic acid (4-(3,4-dimethoxy-phenyl)-4-{1,3-dioxo-4-[4-(1R)-(1-phenyl-ethyl)-piperazin-1-yl]-1,3-dihydro-isoindol-2-yl}-butyl)-amide] were 13 nM, 560 nM and 22 nM.
Consider `COc1ccc([C@@H](CCCNC(=O)C2CCCC2)N2C(=O)c3cccc(N4CCN([C@H](C)c5ccccc5)CC4)c3C2=O)cc1OC` [Cpd 179, (R)-cyclopentanecarboxylic acid (4-(3,4-dimethoxy-phenyl)-4-{1,3-dioxo-4-[4-(1R)-(1-phenyl-ethyl)-piperazin-1-yl]-1,3-dihydro-isoindol-2-yl}-butyl)-amide], for which the IC50 came out at 24 nM in test [1] and 1100 nM in test [3]. In test [2], the inhibition constant (Ki) amounted to 43 nM.
On to `CCC(=O)NCCC[C@H](c1ccc(OC)c(OC)c1)N1C(=O)c2cccc(N3CCN([C@H](C)c4ccccc4)CC3)c2C1=O` [Cpd 180, (R)-N-(4-(3,4-dimethoxy-phenyl)-4-{1,3-dioxo-4-[4-(1R)-(1-phenyl-ethyl)-piperazin-1-yl]-1,3-dihydro-isoindol-2-yl}-butyl)-propionamide], for which the IC50 in test [1] was 8.8 nM; in test [3], 570 nM. The compound further showed an inhibition constant Ki in test [2] of 23 nM.
For `COc1ccc([C@@H](CCCNC(=O)CC(C)C)N2C(=O)c3cccc(N4CCN([C@H](C)c5ccccc5)CC4)c3C2=O)cc1OC` [Cpd 181, (R)-N-(4-(3,4-dimethoxy-phenyl)-4-{1,3-dioxo-4-[4-(1R)-(1-phenyl-ethyl)-piperazin-1-yl]-1,3-dihydro-isoindol-2-yl}-butyl)-3-methyl-butyramide], in that order: 12 nM, 970 nM and 41 nM.
